Assay results published in patent publication US9611256B2, “Alkyne-, azide- and triazole-containing flavonoids as modulators for multidrug resistance in cancers” (The Hong Kong Polytechnic University, priority 2012, dated 2017).

Columns and labels:
[1] = in vitro; details: mouse
[2] = target: T1, BCRP (Homo sapiens, UniProt Q9UNQ0); experiment: cell-based
T1 sequence (Q9UNQ0 1-655): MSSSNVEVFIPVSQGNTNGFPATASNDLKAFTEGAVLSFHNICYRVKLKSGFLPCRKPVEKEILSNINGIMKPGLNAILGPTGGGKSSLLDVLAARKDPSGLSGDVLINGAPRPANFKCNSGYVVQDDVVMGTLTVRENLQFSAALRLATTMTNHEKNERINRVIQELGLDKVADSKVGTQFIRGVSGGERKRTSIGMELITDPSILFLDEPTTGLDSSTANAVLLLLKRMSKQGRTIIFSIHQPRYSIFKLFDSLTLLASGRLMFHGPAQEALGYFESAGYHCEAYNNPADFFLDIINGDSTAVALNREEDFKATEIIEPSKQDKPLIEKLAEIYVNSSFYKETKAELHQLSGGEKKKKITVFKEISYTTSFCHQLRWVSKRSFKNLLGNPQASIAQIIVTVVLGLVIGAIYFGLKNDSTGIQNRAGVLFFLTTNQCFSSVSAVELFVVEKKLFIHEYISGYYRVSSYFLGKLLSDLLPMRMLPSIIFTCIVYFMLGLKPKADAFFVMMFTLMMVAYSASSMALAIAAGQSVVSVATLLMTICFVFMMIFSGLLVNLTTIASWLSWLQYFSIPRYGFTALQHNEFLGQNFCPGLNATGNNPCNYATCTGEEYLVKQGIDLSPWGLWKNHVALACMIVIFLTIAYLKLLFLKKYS

[3] = test system: P-gp, MRP1 and BCRP transporters; experiment: Selectivity for ABC transporters, determined from % of reversion (Tables 1 and 2); assay type: cell-based, human; details: determined from % of reversion in Table 1 (>80% strongly, 79-50% moderately selective)
Source text: Generally, the triazole dimers library can be divided into mono-selective, dual-selective and multi-selective ABC transporter modulators. Table 2 summarizes the selectivity of different active triazole dimers and some monomeric azides for the ABC transporters. […] From the study, it seems that the simple monomeric azides could be a highly BCRP-selective inhibitor. […] It is possible that differently selective (mono-, dual- and multi-) inhibitors of drug transporters could be potentially useful tools for investigation of complicated drug-resistance phenotypes and eventually, for treatment of drug-resistant cancers caused by overexpression of ABC transporters.
The selectivity of active triazole compounds for various ABC transporters was determined from the Table 1. It would be considered as strongly selective if it causes >80% of reversion. It would be considered as moderately selective if it results in 79-50% of reversion. Overall, the active triazole compounds can be divided into mono-, dual- and multi-selective for P-gp, MRP1 and BCRP transporters.

[4] = target: T1, BCRP; experiment: Reversal of BCRP-mediated topotecan resistance in MCF7-MX100 cells (cell proliferation assay); details: for Topotecan resistance of MCF7-MX100 Therapeutic index: (IC50 towards L929 or Raw264.7)/(EC50 for reversing drug resistance); for % of reversion of sensitivity of MCF7-MX100 towards topotecan: triazole dimers at 1.0 μM
[5] = target: MRP1 (Homo sapiens, UniProt P33527); experiment: Reversal of MRP1-mediated DOX resistance in 2008/MRP1 cells (cell proliferation assay); details: for % of reversion of sensitivity of 2008/MRP1 towards DOX: triazole dimers at 1.0 μM; for DOX resistance of 2008/MRP1 Therapeutic index: (IC50 towards L929 or Raw264.7)/(EC50 for reversing drug resistance)
Sequence of MRP1 (P33527 whole entry): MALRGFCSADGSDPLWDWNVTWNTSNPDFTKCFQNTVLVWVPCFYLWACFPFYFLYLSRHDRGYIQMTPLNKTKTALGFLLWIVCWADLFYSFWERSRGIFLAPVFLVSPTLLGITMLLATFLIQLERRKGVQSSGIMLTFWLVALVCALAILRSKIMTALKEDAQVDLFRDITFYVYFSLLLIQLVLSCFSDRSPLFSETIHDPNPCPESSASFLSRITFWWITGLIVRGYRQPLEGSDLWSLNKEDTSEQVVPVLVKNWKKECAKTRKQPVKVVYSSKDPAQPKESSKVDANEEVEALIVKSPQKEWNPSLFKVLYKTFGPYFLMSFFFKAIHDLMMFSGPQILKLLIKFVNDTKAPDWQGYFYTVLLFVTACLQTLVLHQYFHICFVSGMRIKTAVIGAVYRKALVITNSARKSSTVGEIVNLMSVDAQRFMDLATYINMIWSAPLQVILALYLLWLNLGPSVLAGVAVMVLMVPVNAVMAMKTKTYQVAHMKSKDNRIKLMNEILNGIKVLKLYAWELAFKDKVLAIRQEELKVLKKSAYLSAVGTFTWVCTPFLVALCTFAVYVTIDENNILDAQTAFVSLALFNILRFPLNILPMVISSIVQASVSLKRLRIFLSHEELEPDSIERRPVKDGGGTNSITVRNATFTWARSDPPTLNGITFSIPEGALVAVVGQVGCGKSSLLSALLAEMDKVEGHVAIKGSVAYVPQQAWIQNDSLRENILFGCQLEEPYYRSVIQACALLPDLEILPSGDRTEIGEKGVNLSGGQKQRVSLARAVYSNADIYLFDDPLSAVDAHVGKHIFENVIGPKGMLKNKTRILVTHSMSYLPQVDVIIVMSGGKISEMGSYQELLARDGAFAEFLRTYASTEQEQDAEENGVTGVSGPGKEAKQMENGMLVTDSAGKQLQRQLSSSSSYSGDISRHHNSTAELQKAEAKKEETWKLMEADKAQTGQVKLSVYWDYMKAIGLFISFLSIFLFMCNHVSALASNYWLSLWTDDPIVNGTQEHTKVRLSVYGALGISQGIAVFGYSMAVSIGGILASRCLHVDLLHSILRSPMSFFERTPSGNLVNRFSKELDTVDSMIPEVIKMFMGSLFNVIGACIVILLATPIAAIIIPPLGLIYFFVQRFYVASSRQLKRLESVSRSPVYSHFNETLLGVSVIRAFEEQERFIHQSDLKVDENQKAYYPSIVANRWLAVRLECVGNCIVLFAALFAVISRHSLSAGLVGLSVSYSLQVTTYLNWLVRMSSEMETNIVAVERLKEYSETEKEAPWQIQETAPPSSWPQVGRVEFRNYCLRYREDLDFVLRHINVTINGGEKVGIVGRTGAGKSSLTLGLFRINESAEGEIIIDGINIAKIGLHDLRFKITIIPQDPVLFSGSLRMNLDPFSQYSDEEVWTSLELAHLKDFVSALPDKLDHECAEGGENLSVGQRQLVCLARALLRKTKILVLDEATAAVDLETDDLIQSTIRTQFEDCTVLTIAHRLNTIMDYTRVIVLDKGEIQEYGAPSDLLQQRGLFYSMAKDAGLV

| SMILES | IC50 at 5 days [1] [nM] | EC50 [2] [nM] | Selectivity for ABC transporters (P-gp, MRP1, BCRP) [3] | % of reversion of sensitivity of 2008/MRP1 towards DOX [5] | Topotecan resistance of MCF7-MX100 Therapeutic index [4] | % of reversion of sensitivity of MCF7-MX100 towards topotecan [4] | DOX resistance of 2008/MRP1 Therapeutic index [5] |
| --- | --- | --- | --- | --- | --- | --- | --- |
| Cc1ccc2oc(-c3ccc(OCCCCc4cn(CCOCCOCCOc5ccc(-c6cc(=O)c7cc(F)ccc7o6)cc5)nn4)cc3)cc(=O)c2c1 [Ac5Az4, 6-Fluoro-2-(4-(2-(2-(2-(4-(4-(4-(6-methyl-4-oxo-4H-chromen-2-yl)phenoxy)butyl)-1H-1,2,3-triazol-1-yl)ethoxy)ethoxy)ethoxy)phenyl)-4H-chromen-4-one] | > 100000 | 18 | – | – | – | – | – |
| Cc1ccc2oc(-c3ccc(OCCCCc4cn(CCOCCOCCOc5ccc(-c6oc7ccccc7c(=O)c6OCc6ccccc6)cc5)nn4)cc3)cc(=O)c2c1 [Ac5Az5, 3-(Benzyloxy)-2-(4-(2-(2-(2-(4-(4-(4-(6-methyl-4-oxo-4H-chromen-2-yl)phenoxy)butyl)-1H-1,2,3-triazol-1-yl)ethoxy)ethoxy)ethoxy)phenyl)-4H-chromen-4-one] | > 100000 | 33 | Pgp- and BCRP-dual selectivity | – | – | – | – |
| COC(=O)c1cccc(COc2c(-c3ccc(OCCOCCn4cc(CCCCOc5ccc(-c6cc(=O)c7cc(C)ccc7o6)cc5)nn4)cc3)oc3ccccc3c2=O)c1 [Ac5Az8, Methyl 3-(((2-(4-(2-(2-(4-(4-(4-(6-methyl-4-oxo-4H-chromen-2-yl)phenoxy)butyl)-1H-1,2,3-triazol-1-yl)ethoxy)ethoxy)phenyl)-4-oxo-4H-chromen-3-yl)oxy)methyl)benzoate] | > 100000 | ≤ 10 | Pgp- and BCRP-dual selectivity | – | >25000.0 | about 64.0% | – |
| COC(=O)c1cccc(COc2c(-c3ccc(OCCOCCOCCn4cc(CCCCOc5ccc(-c6cc(=O)c7cc(C)ccc7o6)cc5)nn4)cc3)oc3ccccc3c2=O)c1 [Ac5Az9, Methyl 3-(((2-(4-(2-(2-(2-(4-(4-(4-(6-methyl-4-oxo-4H-chromen-2-yl)phenoxy)butyl)-1H-1,2,3-triazol-1-yl)ethoxy)ethoxy)ethoxy)phenyl)-4-oxo-4H-chromen-3-yl)oxy)methyl)benzoate] | > 100000 | ≤ 10 | multi-selectivity towards P-gp, MRP1 and BCRP transporters | – | >111111.1 | about 64.0% | – |
| O=C(/C=C/c1ccc(OCCCCc2cn(CCOCCOc3ccc(-c4cc(=O)c5ccccc5o4)cc3)nn2)cc1)c1ccc(F)cc1O [Ac10Az1, (E)-2-(4-(2-(2-(4-(4-(4-(3-(4-Fluoro-2-hydroxyphenyl)-3-oxoprop-1-en-1-yl)phenoxy)butyl)-1H-1,2,3-triazol-1-yl)ethoxy)ethoxy)phenyl)-4H-chromen-4-one] | – | – | MRP1- and BCRP-dual selectivity | ~54.8% | – | – | – |
| COC(=O)c1cccc(COc2c(-c3ccc(OCCOCCn4cc(CCCCOc5ccc6c(=O)cc(-c7ccccc7)oc6c5)nn4)cc3)oc3ccccc3c2=O)c1 [Ac12Az8, Methyl 3-(((4-oxo-2-(4-(2-(2-(4-(4-((4-oxo-2-phenyl-4H-chromen-7-yl)oxy)butyl)-1H-1,2,3-triazol-1-yl)ethoxy)ethoxy)phenyl)-4H-chromen-3-yl)oxy)methyl)benzoate] | > 100000 | ≤ 10 | multi-selectivity towards P-gp, MRP1 and BCRP transporters | – | >17857.1 | about 80.0% | – |
| COC(=O)c1cccc(COc2c(-c3ccc(OCCOCCOCCn4cc(CCCCOc5ccc6c(=O)cc(-c7ccccc7)oc6c5)nn4)cc3)oc3ccccc3c2=O)c1 [Ac12Az9, Methyl 3-(((4-oxo-2-(4-(2-(2-(2-(4-(4-((4-oxo-2-phenyl-4H-chromen-7-yl)oxy)butyl)-1H-1,2,3-triazol-1-yl)ethoxy)ethoxy)ethoxy)phenyl)-4H-chromen-3-yl)oxy)methyl)benzoate] | > 100000 | ≤ 10 | multi-selectivity towards P-gp, MRP1 and BCRP transporters | – | >71428.6 | about 80.0% | – |
| COC(=O)c1cccc(COc2c(-c3ccc(OCCOCCOCCn4cc(COCCOc5ccc6c(=O)cc(-c7ccccc7)oc6c5)nn4)cc3)oc3ccccc3c2=O)c1 [Ac13Az9] | > 100000 | ≤ 10 | Pgp- and BCRP-dual selectivity | – | >50000.0 | about 80.0% | – |
| O=c1cc(-c2ccc(OCCOCCn3cc(CN(Cc4ccccc4)Cc4cn(CCOCCOc5ccc(-c6cc(=O)c7ccccc7o6)cc5)nn4)nn3)cc2)oc2ccccc12 [Ac15Az1, 2,2′-((((((4,4′-((Benzylazanediyl)bis(methylene))bis(1H-1,2,3-triazole-4,1-diyl))bis(ethane-2,1-diyl))bis(oxy))bis(ethane-2,1-diyl))bis(oxy))bis(4,1-phenylene))bis(4H-chromen-4-one)] | > 100000 | 111 ± 9 | MRP1- and BCRP-dual selectivity | – | – | – | – |

Further lines, with some results ahead:

| IC50 at 5 days [1] [nM] | EC50 [2] [nM] | Selectivity for ABC transporters (P-gp, MRP1, BCRP) [3] | % of reversion of sensitivity of 2008/MRP1 towards DOX [5] | SMILES | Topotecan resistance of MCF7-MX100 Therapeutic index [4] | % of reversion of sensitivity of MCF7-MX100 towards topotecan [4] | DOX resistance of 2008/MRP1 Therapeutic index [5] |
| --- | --- | --- | --- | --- | --- | --- | --- |
| > 100000 | 48 | mono-BCRP selectivity | – | O=c1c(OCc2ccccc2)c(-c2ccc(OCCOCCOCCn3cc(CN(Cc4ccccc4)Cc4cn(CCOCCOCCOc5ccc(-c6oc7ccccc7c(=O)c6OCc6ccccc6)cc5)nn4)nn3)cc2)oc2ccccc12 [Ac15Az5, 2,2′-((((((((4,4′-((Benzylazanediyl)bis(methylene))bis(1H-1,2,3-triazole-4,1-diyl))bis(ethane-2,1-diyl))bis(oxy))bis(ethane-2,1-diyl))bis(oxy))bis(ethane-2,1-diyl))bis(oxy))bis(4,1-phenylene))bis(3-(benzyloxy)-4H-chromen-4-one)] | – | – | – |
| > 100000 | – | mono-MRP1 selectivity | – | Cc1ccc2oc(-c3ccc(OCCOCCOCCn4cc(CN(CCOc5ccc6c(=O)cc(-c7ccccc7)oc6c5)Cc5ccccc5)nn4)cc3)cc(=O)c2c1 [Ac16Az3, 7-(2-(Benzyl((1-(2-(2-(2-(4-(6-methyl-4-oxo-4H-chromen-2-yl)phenoxy)ethoxy)ethoxy)ethyl)-1H-1,2,3-triazol-4-yl)methyl)amino)ethoxy)-2-phenyl-4H-chromen-4-one] | – | – | >726.2 |
| > 100000 | – | mono-MRP1 selectivity | about 77.8% | O=c1cc(-c2ccccc2)oc2cc(OCCN(Cc3ccccc3)Cc3cn(CCOCCOCCOc4ccc(-c5oc6ccccc6c(=O)c5OCc5ccccc5)cc4)nn3)ccc12 [Ac16Az5, 7-(2-(Benzyl((1-(2-(2-(2-(4-(3-(benzyloxy)-4-oxo-4H-chromen-2-yl)phenoxy)ethoxy)ethoxy)ethyl)-1H-1,2,3-triazol-4-yl)methyl)amino)ethoxy)-2-phenyl-4H-chromen-4-one] | – | – | >331.5 |
| > 100000 | – | mono-MRP1 selectivity | – | O=c1cc(-c2ccccc2)oc2cc(OCCOCCOCCn3cc(CN(CCOc4ccc5c(=O)cc(-c6ccccc6)oc5c4)Cc4ccccc4)nn3)ccc12 [Ac16Az12, 7-(2-(Benzyl((1-(2-(2-(2-((4-oxo-2-phenyl-4H-chromen-7-yl)oxy)ethoxy)ethoxy)ethyl)-1H-1,2,3-triazol-4-yl)methyl)amino)ethoxy)-2-phenyl-4H-chromen-4-one] | – | – | >480.8 |
| 51000 | 32 | mono-BCRP selectivity | – | [N-]=[N+]=NCCOCCOc1ccc(-c2oc3ccccc3c(=O)c2OCc2ccccc2)cc1 [Az10, 2-(4-(2-(2-Azidoethoxy)ethoxy)phenyl)-3-(benzyloxy)-4H-chromen-4-one] | – | – | – |
